Where “and” joins values, the source holds several entries; their conditions need not be identical. Equal values may be shown once.
Experiment: xn = mol fraction of the nth substance listed

COc1ccccc1 + c1ccccc1
101.33 kPa
Details	viscosity
293.15 K, x1 = 0.0945	0.7297 mPa·s
293.15 K, x1 = 0.1951	0.7551 mPa·s
293.15 K, x1 = 0.2984	0.8001 mPa·s
293.15 K, x1 = 0.3942	0.8413 mPa·s
293.15 K, x1 = 0.5178	0.9017 mPa·s
293.15 K, x1 = 0.6157	0.9434 mPa·s
293.15 K, x1 = 0.6574	0.9641 mPa·s
293.15 K, x1 = 0.8116	1.052 mPa·s
293.15 K, x1 = 0.906	1.097 mPa·s
298.15 K, x1 = 0.0945	0.6765 mPa·s
298.15 K, x1 = 0.1	0.635 mPa·s
298.15 K, x1 = 0.1025	0.6396 mPa·s
298.15 K, x1 = 0.1951	0.7095 mPa·s
298.15 K, x1 = 0.2	0.671 mPa·s and 0.671 mPa·s
298.15 K, x1 = 0.2004	0.6806 mPa·s
298.15 K, x1 = 0.2984	0.7437 mPa·s
298.15 K, x1 = 0.3003	0.7121 mPa·s
298.15 K, x1 = 0.3942	0.7772 mPa·s
298.15 K, x1 = 0.4	0.742 mPa·s
298.15 K, x1 = 0.402	0.7553 mPa·s
298.15 K, x1 = 0.4985	0.7849 mPa·s
298.15 K, x1 = 0.5	0.782 mPa·s and 0.782 mPa·s
298.15 K, x1 = 0.5178	0.8397 mPa·s
298.15 K, x1 = 0.6	0.821 mPa·s
298.15 K, x1 = 0.6157	0.88 mPa·s
298.15 K, x1 = 0.6574	0.9047 mPa·s
298.15 K, x1 = 0.699	0.8709 mPa·s
298.15 K, x1 = 0.8	0.907 mPa·s
298.15 K, x1 = 0.805	0.9112 mPa·s
298.15 K, x1 = 0.8116	0.9812 mPa·s
298.15 K, x1 = 0.9013	0.9506 mPa·s
303.15 K, x1 = 0.1025	0.6033 mPa·s
303.15 K, x1 = 0.2004	0.6433 mPa·s
303.15 K, x1 = 0.3003	0.6712 mPa·s
303.15 K, x1 = 0.402	0.7045 mPa·s
303.15 K, x1 = 0.4985	0.738 mPa·s
303.15 K, x1 = 0.5991	0.7765 mPa·s
303.15 K, x1 = 0.699	0.8121 mPa·s
303.15 K, x1 = 0.805	0.8545 mPa·s
303.15 K, x1 = 0.9013	0.8883 mPa·s
308.15 K, x1 = 0.1	0.556 mPa·s
308.15 K, x1 = 0.1025	0.5736 mPa·s
308.15 K, x1 = 0.2	0.587 mPa·s
308.15 K, x1 = 0.2004	0.6196 mPa·s
308.15 K, x1 = 0.3003	0.6447 mPa·s
308.15 K, x1 = 0.4	0.649 mPa·s
308.15 K, x1 = 0.402	0.675 mPa·s
308.15 K, x1 = 0.4985	0.7086 mPa·s
308.15 K, x1 = 0.5	0.68 mPa·s
308.15 K, x1 = 0.5991	0.7422 mPa·s
308.15 K, x1 = 0.6	0.715 mPa·s
308.15 K, x1 = 0.699	0.7763 mPa·s
308.15 K, x1 = 0.8	0.785 mPa·s
308.15 K, x1 = 0.805	0.8167 mPa·s
308.15 K, x1 = 0.9013	0.8509 mPa·s
313.15 K, x1 = 0.1025	0.5191 mPa·s
313.15 K, x1 = 0.2004	0.5555 mPa·s
313.15 K, x1 = 0.3003	0.5884 mPa·s
313.15 K, x1 = 0.402	0.6099 mPa·s
313.15 K, x1 = 0.4985	0.6337 mPa·s
313.15 K, x1 = 0.5991	0.669 mPa·s
313.15 K, x1 = 0.699	0.7007 mPa·s
313.15 K, x1 = 0.805	0.7318 mPa·s
313.15 K, x1 = 0.9013	0.7626 mPa·s
318.15 K, x1 = 0.1	0.489 mPa·s
318.15 K, x1 = 0.2	0.517 mPa·s
318.15 K, x1 = 0.4	0.57 mPa·s
318.15 K, x1 = 0.5	0.597 mPa·s
318.15 K, x1 = 0.6	0.626 mPa·s
318.15 K, x1 = 0.8	0.684 mPa·s
323.15 K, x1 = 0.1	0.46 mPa·s
323.15 K, x1 = 0.2	0.485 mPa·s and 0.485 mPa·s
323.15 K, x1 = 0.4	0.533 mPa·s
323.15 K, x1 = 0.5	0.559 mPa·s and 0.559 mPa·s
323.15 K, x1 = 0.6	0.585 mPa·s
323.15 K, x1 = 0.8	0.64 mPa·s

CC[N+](CC)(CC)CC.Cc1ccc(S(=O)(=O)[O-])cc1 + OCCOCCOCCOCCO
101 kPa, x1 = 0.2
Details	viscosity [mPa·s]
298.15 K	74.7
303.15 K	57.8
308.15 K	45.9
313.15 K	36.9
318.15 K	30.2
323.15 K	25

CC(=O)Oc1ccccc1C(=O)O + CCCO
viscosity [mPa·s], 101 kPa
Details	x1 = 0.00057	x1 = 0.000763	x1 = 0.000955	x1 = 0.00115	x1 = 0.00134	x1 = 0.00153	x1 = 0.00191
293.15 K	2.257	2.26	2.261	2.262	2.265	2.266	2.27
298.15 K	2.207	2.209	2.21	2.211	2.213	2.215	2.217
303.15 K	1.718	1.719	1.719	1.721	1.722	1.723	1.726
308.15 K	1.622	1.623	1.624	1.625	1.626	1.627	1.628
310.15 K	1.458	1.459	1.459	1.46	1.46	1.461	1.461
313.15 K	1.397	1.398	1.399	1.399	1.399	1.4	1.401

COc1ccccc1 + CCCCCO
viscosity [mPa·s], 101.33 kPa
Details	x1 = 0.1	x1 = 0.1998	x1 = 0.3002	x1 = 0.4001	x1 = 0.5	x1 = 0.6002	x1 = 0.6998	x1 = 0.6999	x1 = 0.8001	x1 = 0.9
303.15 K	2.369	1.911	1.658	1.447	1.26	1.109	–	1.046	0.952	0.914
313.15 K	1.841	1.522	1.326	1.173	1.022	0.929	–	0.862	0.814	0.791
323.15 K	1.403	1.172	1.062	0.953	0.853	0.792	0.745	–	0.708	0.696

CCOCCn1cc[n+](CCC#N)c1.O=S(=O)([N-]S(=O)(=O)C(F)(F)F)C(F)(F)F + CS(C)=O
Details	viscosity [mPa·s]
303.15 K, 101.33 kPa, x1 = 0.7207	40.65

CC1COC(=O)O1 (stereo not given) + CCO
298 K, 101.3 kPa
Details	viscosity [mPa·s]
x1 = 0.021	1.1
x1 = 0.0404	1.116
x1 = 0.06	1.131
x1 = 0.0806	1.147
x1 = 0.0987	1.161
x1 = 0.2008	1.237
x1 = 0.3003	1.312
x1 = 0.4003	1.397
x1 = 0.5002	1.497
x1 = 0.6002	1.619
x1 = 0.7001	1.768
x1 = 0.8	1.947
x1 = 0.9005	2.165

CC1COC(=O)O1 (stereo not given) + O
298.15 K, 101 kPa
Details	viscosity [mPa·s]
x1 = 0.0025	0.9114
x1 = 0.005	0.9267
x1 = 0.01	0.959
x1 = 0.02	1.028
x1 = 0.025	1.064
x1 = 0.0307	1.099

CC1COC(=O)O1 (stereo not given) + CCCCCCCO
298.15 K, 101 kPa
Details	viscosity [mPa·s]
x1 = 0.0321	4.755
x1 = 0.1202	4.481
x1 = 0.1934	4.281
x1 = 0.2735	4.035
x1 = 0.3226	3.909
x1 = 0.4002	3.709
x1 = 0.4717	3.534
x1 = 0.5334	3.39
x1 = 0.6111	3.217
x1 = 0.699	3.031
x1 = 0.7602	2.909
x1 = 0.8226	2.789
x1 = 0.8925	2.662
x1 = 0.9674	2.529
